Measured values reported in patent publication US10206908B2, “3-(1H-pyrrolo[3,2-C]pyridin-2-YL)-1H-pyrazolo[3,4-C]pyridines and therapeutic uses thereof” (Samumed, LLC, priority 2015, dated 2019).

Experiments:
Type in all cases: cell-based
[1] = system: SW480 colon cancer cells; assay: Cell viability assay (CellTiter-Blue) in SW480 colon cancer cells; settings: Homo sapiens; for EC50: 96 h, SW480 cell viability, four days; for inhibition at 10 µM: SW480, read-out: percent inhibition at 10 μM
In short: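 Fluorescence from resazurin reduced to resorufin by metabolically active cells was the read-out, taken after ~3 h with CellTiter-Blue.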

[2] = system: IL-6 (THP-1 cells); assay: IL-6 inhibition in LPS-stimulated THP-1 monocytes (HTRF); settings: Homo sapiens; IL-6, THP-1 cells, LPS 500 ng/mL, 22 hours
In short: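 THP-1 cells kept 24 h in 1% FBS medium, exposed to compound 2 h at 37 °C, then stimulated with 500 ng/mL LPS for 22 h. Secreted IL-6 quantified by HTRF (665/620 nm ratio), duplicates. Values normalized to DMSO; EC50 by four-parameter variable-slope regression.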

[3] = system: primary human fibroblasts derived from IPF patients (LL29 cells) treated with TGF-β1; assay: Inhibition of the fibrotic process: αSMA staining in TGF-β1 treated LL29 fibroblasts; settings: Fibroblast; for EC50: 96 h, % αSMA positive LL29 cells, TGF-β1 20 ng/mL, 4 days
In short: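 Read-out after 4-day incubation: αSMA staining with 1 μM SYTOX green nuclear counterstain (30 min, room temperature). Cells were LL29 primary fibroblasts from IPF patients, in 1% FBS F12, exposed to TGF-β1 with test compound, referenced to TGF-β1/DMSO control wells.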

[4] = system: primary human mesenchymal stem cells (hMSCs); assay: Induction of chondrogenesis in hMSCs (chondrogenic nodules, Rhodamine B/Nile Red); settings: 6 days; for EC50: concentration required to induce 50% levels of chondrogenesis vs TGF-β3, read-out: Conc (nM) of 50% TGF-β3 activity; for Emax: relative to TGF-β3 (10 ng/mL) positive control, read-out: Max. Activity as % TGF-β3 activity
Text: Representative compounds were screened using primary human mesenchymal stem cells (hMSCs) to determine their ability to induce chondrogenesis (process by which cartilage is developed).
Human Mesenchymal Stem Cell Culture: Primary human mesenchymal stem cells (hMSCs) were purchased from Lonza (Walkersville, Md.) and expanded in Mesenchymal Stem Cell Growth Media (Lonza). Cells between passage 3 and 6 were used for the experiments.
Number of nodules in each well was normalized to the average of 3 DMSO treated wells on the same plate using Excel (Microsoft Inc.). The normalized averages (fold change over DMSO) of 3 replicate wells for each compound concentration were calculated. Due to solubility limitations of some of the compounds, curve fitting was incomplete leading to inaccurate EC50 determinations.
Using TGF-β3 as a positive control, the concentration of representative compounds required to induce 50% levels of chondrogenesis is reported. In addition, the maximum activity of each compound and the respective dose that each compound reached maximum chondrogenesis activity is reported.

[5] = system: Wnt activity (Sp5-Luc reporter, SW480 colon carcinoma cells); assay: Screening assay for Wnt activity: Sp5-Luc reporter gene assay in SW480 colon carcinoma cells; settings: Homo sapiens; Sp5-Luc reporter, SW480 cells, overnight incubation
In short: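 SW480 colon carcinoma cells stably carrying Sp5 promoter (eight TCF/LEF sites)-driven firefly luciferase, plated at 4,000 cells/well in 1% FBS medium and incubated overnight at 37° C. Luminescence normalised to DMSO-only cells; EC50 from four-parameter variable-slope nonlinear regression.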

SMILES | EC50 [1] | EC50 [2] | EC50 [4] | EC50 [5] | inhibition at 10 µM [1] | EC50 [3] | Emax [4] | inhibition at 10 µM ([3]; read-out: percent inhibition at 10 μM)
CN1CCN(c2nccc3[nH]c(-c4n[nH]c5cnc(-c6cncc(NC(=O)C(C)(C)C)c6)cc45)cc23)CC1 [Compound 232, N-(5-(3-(4-(4-Methylpiperazin-1-yl)-1H-pyrrolo[3,2-c]pyridin-2-yl)-1H-pyrazolo[3,4-c]pyridin-5-yl)pyridin-3-yl)pivalamide] | > 10000 nM | 388 nM | 10 nM | 1880 nM | 62.2% | 756 nM | 88% | –
CN1CCN(c2nccc3[nH]c(-c4n[nH]c5cnc(-c6cncc(NC(=O)c7ccccc7)c6)cc45)cc23)CC1 [Compound 235, N-(5-(3-(4-(4-Methylpiperazin-1-yl)-1H-pyrrolo[3,2-c]pyridin-2-yl)-1H-pyrazolo[3,4-c]pyridin-5-yl)pyridin-3-yl)benzamide] | > 10000 nM | 1340 nM | 10 nM | 2800 nM | 21.5% | 2460 nM | 67% | –
CN(C)Cc1cncc(-c2cc3c(-c4cc5c(N6CCN(C)CC6)nccc5[nH]4)n[nH]c3cn2)c1 [Compound 237, N,N-Dimethyl-1-(5-(3-(4-(4-methylpiperazin-1-yl)-1H-pyrrolo[3,2-c]pyridin-2-yl)-1H-pyrazolo[3,4-c]pyridin-5-yl)pyridin-3-yl)methanamine] | > 10000 nM | 4680 nM | – | 3890 nM | 43.7% | > 10000 nM | 14% | 37%
CN1CCN(c2nccc3[nH]c(-c4n[nH]c5cnc(-c6cncc(NC(=O)C7CCCCC7)c6)cc45)cc23)CC1 [Compound 247, N-(5-(3-(4-(4-Methylpiperazin-1-yl)-1H-pyrrolo[3,2-c]pyridin-2-yl)-1H-pyrazolo[3,4-c]pyridin-5-yl)pyridin-3-yl)cyclohexanecarboxamide] | > 10000 nM | 4600 nM | 10 nM | 3420 nM | 40.3% | 2990 nM | 61% | –

Stronger by EC50 [1], values ahead:

EC50 [1] | EC50 [2] | EC50 [4] | EC50 [5] | SMILES | inhibition at 10 µM [1] | EC50 [3] | Emax [4] | inhibition at 10 µM ([3]; read-out: percent inhibition at 10 μM)
2370 nM | 323 nM | 10 nM | 1100 nM | CN1CCN(c2nccc3[nH]c(-c4n[nH]c5cnc(-c6cncc(CN7CCC(F)(F)C7)c6)cc45)cc23)CC1 [Compound 250, 5-(5-((3,3-Difluoropyrrolidin-1-yl)methyl)pyridin-3-yl)-3-(4-(4-methylpiperazin-1-yl)-1H-pyrrolo[3,2-c]pyridin-2-yl)-1H-pyrazolo[3,4-c]pyridine] | – | 641 nM | 76% | –
2250 nM | 623 nM | 30 nM | 399 nM | CC(C)C(=O)Nc1cncc(-c2cc3c(-c4cc5cnccc5[nH]4)n[nH]c3cn2)c1 [Compound 261, N-(5-(3-(1H-Pyrrolo[3,2-c]pyridin-2-yl)-1H-pyrazolo[3,4-c]pyridin-5-yl)pyridin-3-yl)isobutyramide] | – | 472 nM | 61% | –
1600 nM | 2220 nM | 300 nM | 3060 nM | CN(C)c1cncc(-c2cc3c(-c4cc5cnccc5[nH]4)n[nH]c3cn2)c1 [Compound 259, 5-(3-(1H-Pyrrolo[3,2-c]pyridin-2-yl)-1H-pyrazolo[3,4-c]pyridin-5-yl)-N,N-dimethylpyridin-3-amine] | – | 401 nM | 101% | –
798 nM | 944 nM | 10 nM | 389 nM | Cc1ccncc1-c1cc2c(-c3cc4cnccc4[nH]3)n[nH]c2cn1 [Compound 257, 5-(4-Methylpyridin-3-yl)-3-(1H-pyrrolo[3,2-c]pyridin-2-yl)-1H-pyrazolo[3,4-c]pyridine] | – | 376 nM | 61% | –
628 nM | 362 nM | 30 nM | 133 nM | c1cncc(-c2cc3c(-c4cc5cnccc5[nH]4)n[nH]c3cn2)c1 [Compound 256, 5-(Pyridin-3-yl)-3-(1H-pyrrolo[3,2-c]pyridin-2-yl)-1H-pyrazolo[3,4-c]pyridine] | – | 25 nM | 62% | –
